Data: US10125134B2 (Mirati Therapeutics, Inc., priority 2016, dated 2018)
Read-outs that look alike come from different tables or passages of the source.

Tests used:
KRas G12C = KRas G12C (Homo sapiens, UniProt P01116, C118S/C51S/C80L/G12C); experiment: KRas G12C Modification Assay (LCMS detection of covalent adduct); assay type: binding; details: normalized percent of control; tested at 5 μM concentration for 3 hours
Summary of the method: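 Covalent modification was read by reverse-phase LC/MS of intact protein after compound exposure, each reaction stopped at its time point with 25 mM acetic acid. Unmodified-protein signal, taken as percent of total, was normalised to untreated protein and reported as POC.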

[1] = system: NCI-H358 cells (express KRas G12C), Phospho-ERK; experiment: Cellular inhibition of KRas G12C: Phospho-ERK in NCI-H358 cells; assay type: cell-based; details: pERK(Thr202/Tyr204) normalized with GAPDH, NCI-H358 cells, 3 hours, read-out: IC50
Summary of the method: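 IC50 derived by 4-parameter fit of GAPDH-normalized pERK(Thr202/Tyr204) signal, as percent of DMSO control. Signal came from in-cell immunodetection with infrared secondaries after 3 h compound exposure of KRas G12C NCI-H358 cells at 0.5% DMSO.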

SMILES | POC (KRas G12C) | IC50 ([1]; Homo sapiens) | IC50 ([1]; Homo sapiens, NCI-H358, 3 h) | IC50 [1]
C=CC(=O)N1CCN(c2nc(OC[C@@H]3CCCN3C)nc3c2CCN(c2cccc4ccc(C)cc24)C3)CC1CC#N (stereo partly drawn) [Example 245, 2-[4-[7-(7-methyl-1-naphthyl)-2-[[(2S)-1-methylpyrrolidin-2-yl]methoxy]-6,8-dihydro-5H-pyrido[3,4-d]pyrimidin-4-yl]-1-prop-2-enoyl-piperazin-2-yl]acetonitrile] | C (“C”>50% POC) | 0.1 to 1000 nM | – | –
C=CC(=O)N1CCN(c2nc(NC3CCN(C4CC4)CC3)nc3c2CCN(c2cc(O)cc4ccccc24)C3)CC1 [Example 204, 1-(4-(2-((1-cyclopropylpiperidin-4-yl)amino)-7-(3-hydroxynaphthalen-1-yl)-5,6,7,8-tetrahydropyrido[3,4-d]pyrimidin-4-yl)piperazin-1-yl)prop-2-en-1-one] | C (“C”>50% POC) | > 1000 nM | – | –
C=CC(=O)N1CCN(c2nc(OCCCN3CCOCC3)nc3c2CCN(c2c(C(F)(F)F)ccc4[nH]ncc24)C3)CC1 [Example 180, 1-[4-[2-(3-morpholinopropoxy)-7-[5-(trifluoromethyl)-1H-indazol-4-yl]-6,8-dihydro-5H-pyrido[3,4-d]pyrimidin-4-yl]piperazin-1-yl]prop-2-en-1-one] | C (“C”>50% POC) | 0.1 to 1000 nM | – | –
C=CC(=O)N1CCN(c2nc(O[C@H](C)CN(C)C)nc3c2CCN(c2cc(O)cc4ccccc24)C3)CC1 [Example 19, (R)-1-(4-(2-((1-(dimethylamino)propan-2-yl)oxy)-7-(3-hydroxynaphthalen-1-yl)-5,6,7,8-tetrahydropyrido[3,4-d]pyrimidin-4-yl)piperazin-1-yl)prop-2-en-1-one] | C (“C”>50% POC) | – | 0.1 to 1000 nM | –
C=CC(=O)N1CCN(c2nc(OC(C)CCN(C)C)nc3c2CCN(c2cc(O)cc4ccccc24)C3)CC1 (stereo not shown) [Example 21, 1-(4-(2-((4-(dimethylamino)butan-2-yl)oxy)-7-(3-hydroxynaphthalen-1-yl)-5,6,7,8-tetrahydropyrido[3,4-d]pyrimidin-4-yl)piperazin-1-yl)prop-2-en-1-one] | C (“C”>50% POC) | – | 0.1 to 1000 nM | –
C=CC(=O)N1CCN(c2nc(O[C@H](C)CN3CCOCC3)nc3c2CCN(c2cc(O)cc4ccccc24)C3)CC1 [Example 56, (R)-1-(4-(7-(3-hydroxynaphthalen-1-yl)-2-((1-morpholinopropan-2-yl)oxy)-5,6,7,8-tetrahydropyrido[3,4-d]pyrimidin-4-yl)piperazin-1-yl)prop-2-en-1-one] | C (“C”>50% POC) | – | 0.1 to 1000 nM | –
C=CC(=O)N1CCN(c2nc(OCCN3CCC[C@@H](F)C3)nc3c2CCN(c2cc(O)cc4ccccc24)C3)CC1 [Example 207, (R)-1-(4-(2-(2-(3-fluoropiperidin-1-yl)ethoxy)-7-(3-hydroxynaphthalen-1-yl)-5,6,7,8-tetrahydropyrido[3,4-d]pyrimidin-4-yl)piperazin-1-yl)prop-2-en-1-one] | C (“C”>50% POC) | > 1000 nM | – | –

More lines, main results first:

POC (KRas G12C) | SMILES | IC50 ([1]; Homo sapiens) | IC50 ([1]; Homo sapiens, NCI-H358, 3 h) | IC50 [1]
A (“A”≤25% POC) | C=CC(=O)N1CCN(c2nc(OCCN(C)C)nc3c2CCN(c2cc(O)cc4ccccc24)C3)CC1C(=O)N(C)C (stereo not shown) [Example 51, 1-acryloyl-4-(2-(2-(dimethylamino)ethoxy)-7-(3-hydroxynaphthalen-1-yl)-5,6,7,8-tetrahydropyrido[3,4-d]pyrimidin-4-yl)-N,N-dimethylpiperazine-2-carboxamide] | > 1000 nM | – | –
C (“C”>50% POC) | C=CC(=O)N1CCN(c2nc(O[C@H](C)CN3CCCCC3)nc3c2CCN(c2cc(O)cc4ccccc24)C3)CC1 [Example 75, (R)-1-(4-(7-(3-hydroxynaphthalen-1-yl)-2-((1-(piperidin-1-yl)propan-2-yl)oxy)-5,6,7,8-tetrahydropyrido[3,4-d]pyrimidin-4-yl)piperazin-1-yl)prop-2-en-1-one] | – | 0.1 to 1000 nM | –
C (“C”>50% POC) | C=CC(=O)N1CCN(c2nc(OC[C@@H]3CCCN3C)nc3c2CCN(c2cccc(Cl)c2CC)C3)C[C@@H]1CC#N [Example 337, 2-[(2S)-4-[7-(3-chloro-2-ethyl-phenyl)-2-[[(2S)-1-methylpyrrolidin-2-yl]methoxy]-6,8-dihydro-5H-pyrido[3,4-d]pyrimidin-4-yl]-1-prop-2-enoyl-piperazin-2-yl]acetonitrile] | – | 0.1 to 1000 nM | –
C (“C”>50% POC) | C=CC(=O)N1CCN(c2nc(OC[C@@H]3CCCN3C)nc3c2CCN(c2ccccc2C(F)(F)F)C3)C[C@@H]1CC#N [Example 379, 2-((S)-1-acryloyl-4-(2-(((S)-1-methylpyrrolidin-2-yl)methoxy)-7-(2-(trifluoromethyl)phenyl)-5,6,7,8-tetrahydropyrido[3,4-d]pyrimidin-4-yl)piperazin-2-yl)acetonitrile] | – | – | 0.1 to 1000 nM
C (“C”>50% POC) | C=CC(=O)N1CCN(c2nc(OCCN3CCC(C)CC3)nc3c2CCN(c2cc(O)cc4ccccc24)C3)CC1 [Example 92, 1-(4-(7-(3-hydroxynaphthalen-1-yl)-2-(2-(4-methylpiperidin-1-yl)ethoxy)-5,6,7,8-tetrahydropyrido[3,4-d]pyrimidin-4-yl)piperazin-1-yl)prop-2-en-1-one] | – | 0.1 to 1000 nM | –
C (“C”>50% POC) | C=CC(=O)N1CCN(c2nc(OC[C@@H]3CCCN3CC3CC3)nc3c2CCN(c2cccc4ccccc24)C3)CC1CC#N (stereo partly drawn) [Example 395, 2-(1-acryloyl-4-(2-(((S)-1-(cyclopropylmethyl)pyrrolidin-2-yl)methoxy)-7-(naphthalen-1-yl)-5,6,7,8-tetrahydropyrido[3,4-d]pyrimidin-4-yl)piperazin-2-yl)acetonitrile] | – | 0.1 to 1000 nM | –
C (“C”>50% POC) | C=CC(=O)N1CCN(c2nc(OCCCN3CCC(OC)C3)nc3c2CCN(c2cc(O)cc4ccccc24)C3)CC1 (stereo not shown) [Example 137, 1-[4-[7-(3-hydroxy-1-naphthyl)-2-[3-(3-methoxypyrrolidin-1-yl)propoxy]-6,8-dihydro-5H-pyrido[3,4-d]pyrimidin-4-yl]piperazin-1-yl]prop-2-en-1-one] | – | > 1000 nM | –
C (“C”>50% POC) | C=CC(=O)N1CCN(c2nc(OCCCN3C[C@H]4C[C@@H]3CO4)nc3c2CCN(c2ccccc2C(F)(F)F)C3)CC1CC#N (stereo partly drawn) [Example 297, 2-[4-[2-[3-[(1R,4R)-2-oxa-5-azabicyclo[2.2.1]heptan-5-yl]propoxy]-7-[2-(trifluoromethyl)phenyl]-6,8-dihydro-5H-pyrido[3,4-d]pyrimidin-4-yl]-1-prop-2-enoyl-piperazin-2-yl]acetonitrile] | – | – | 0.1 to 1000 nM
C (“C”>50% POC) | C=CC(=O)N1CCN(c2nc(OC[C@@H]3C[C@@H](OC)CN3C)nc3c2CCN(c2cccc4ccccc24)C3)CC1CC#N (stereo partly drawn) [Example 268, 2-(1-acryloyl-4-(2-(((2S,4R)-4-methoxy-1-methylpyrrolidin-2-yl)methoxy)-7-(naphthalen-1-yl)-5,6,7,8-tetrahydropyrido[3,4-d]pyrimidin-4-yl)piperazin-2-yl)acetonitrile] | – | 0.1 to 1000 nM | –
C (“C”>50% POC) | C=CC(=O)N1CCN(c2nc(OCCCN3CCCC3)nc3c2CCN(c2cc(O)cc4ccccc24)C3)CC1 [Example 39, 1-(4-(7-(3-hydroxynaphthalen-1-yl)-2-(3-(pyrrolidin-1-yl)propoxy)-5,6,7,8-tetrahydropyrido[3,4-d]pyrimidin-4-yl)piperazin-1-yl)prop-2-en-1-one] | – | 0.1 to 1000 nM | –
